Literature values as cited in patent publication US20030101005A1, “Crystals and structures of perosamine synthase homologs” (priority 2001, published 2003).

Biological target: T1, His-tag RfbE fusion protein (GDP-4-keto-6-deoxy-D-mannose-4-aminotransferase) (Vibrio cholerae, UniProt Q06953)
T1 construct: His-tag
Conditions: substrate or cosubstrate of His-tag RfbE fusion protein

T1 sequence (Q06953 whole entry, the tested form may be a part): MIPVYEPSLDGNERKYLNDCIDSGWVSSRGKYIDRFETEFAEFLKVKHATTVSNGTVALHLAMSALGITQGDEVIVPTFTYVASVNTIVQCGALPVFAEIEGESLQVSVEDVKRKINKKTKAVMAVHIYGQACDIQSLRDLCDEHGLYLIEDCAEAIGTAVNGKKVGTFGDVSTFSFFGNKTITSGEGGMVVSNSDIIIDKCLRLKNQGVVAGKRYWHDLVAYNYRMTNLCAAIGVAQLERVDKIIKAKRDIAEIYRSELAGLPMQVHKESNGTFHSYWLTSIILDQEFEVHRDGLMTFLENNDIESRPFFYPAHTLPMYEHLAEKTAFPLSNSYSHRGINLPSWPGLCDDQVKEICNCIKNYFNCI

SMILES: N[C@@H](CCC(=O)O)C(=O)O [L-glutamate]
- K(m): 0.1 mM
- V(max): 42 nkat/mg protein

SMILES: CC1OC(OP(=O)(O)OP(=O)(O)OCC2OC(n3cnc4c(=O)[nH]c(N)nc43)C(O)C2O)C(O)C(O)C1=O [GDP-4-keto-6-deoxy-D-mannose]
- K(m): 0.06 mM
- V(max): 38 nkat/mg protein
